Assay [1] addresses S-RBD-ACE2 interaction, AH109 (pAD-S-RBD+pBD-ACE2) (UniProt P0DTC2+Q9BYF1). In kind it is cell-based, SARS-CoV-2 S-RBD, human ACE2 (in yeast).
Assay [2] has as its system S-RBD-ACE2 interaction, AH109 (pAD-S-RBD+pBD-ACE2). In kind it is cell-based, SARS-CoV-2 S-RBD, human ACE2 (in yeast).

For the compound `CC(C)CCC[C@@H](C)[C@H]1CC[C@H]2[C@@H]3CC[C@H]4C[C@@H](O[C@@H]5O[C@H](COS(=O)(=O)O)[C@@H](O[C@H]6O[C@H](COS(=O)(=O)O)[C@@H](O[C@H]7O[C@H](COS(=O)(=O)O)[C@@H](O[C@H]8O[C@H](COS(=O)(=O)O)[C@@H](OS(=O)(=O)O)[C@H](OS(=O)(=O)O)[C@H]8OS(=O)(=O)O)[C@H](OS(=O)(=O)O)[C@H]7OS(=O)(=O)O)[C@H](OS(=O)(=O)O)[C@H]6OS(=O)(=O)O)[C@H](OS(=O)(=O)O)[C@H]5OS(=O)(=O)O)CC[C@]4(C)[C@H]3CC[C@]12C` [Pixatimod, reference compound], in assay [1], the “MIC against AH109 (pAD-S-RBD+pBD-ACE2)” value is 1.56 μg/mL.
Regarding `O=C(c1ccc(N2CCCCS2(=O)=O)cc1)N1CCN(C(=O)c2ccco2)CC1` [IMB-1C], in assay [2], the “Difference of MICs among AH109 (pAD-S-RBD+pBD-ACE2) and AH109 (pAD-T+pBD-53)” value came to 2 fold.
Same read-out and setting: the same measure for `Cc1ccc(N(Sc2ccc(Cl)cc2)C2C=CS(=O)(=O)C2)cc1` (stereo not drawn) [IMB-4A]: 2 fold.

Source of the values: publication PMC11765512 (International Journal of Molecular Sciences, 2025).
